Earlier results, collected in patent US10328101B2, “Inactivation of papillomavirus” (priority 2001, dated 2019).

System: bovine papillomavirus
Conditions: iodine in the form of povidone-iodine; low concentrations (title of reference)

Which “treating viruses including bovine papillomavirus” value does the source give for povidone-iodine here?
The value was “effective”.
